Results published in patent US9302999B2, “Substituted triazoles as herbicides” (E. I. DU PONT DE NEMOURS AND COMPANY, priority 2012, dated 2016).

Tests used:
[1] = tested on: field poppy (Papaver rhoeas); assay: Test D pre-/postemergence: field poppy; type: in vivo
In short: (§1)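 Visual 0–100 rating versus untreated controls (0 no effect, 100 complete control), taken 14 to 21 days after treatment in a controlled growth environment. Preemergence: silt loam soil. Postemergence: peat moss/vermiculite medium, plants 2 to 18 cm, 1- to 4-leaf stage. Solvent mixture with surfactant.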

[2] = tested on: bromegrass, downy (downy bromegrass, Bromus tectorum); assay: Test D pre-/postemergence: bromegrass, downy; type: in vivo
In short: as §1

[3] = tested on: crabgrass, large (large crabgrass, Digitaria sanguinalis); assay: Test F pre-/postemergence: crabgrass, large; type: in vivo; conditions: Preemergence, scale 0 to 100
In short: (§2)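 Visual response scores, 0 meaning no effect and 100 complete control, were assigned against untreated controls 14 to 21 days after treatment. Test chemicals in a surfactant-containing non-phytotoxic solvent were applied preemergence to seeded silt loam soil or postemergence to 2–18 cm plants in peat-based medium.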

Waterhemp = assay: Test C preemergence: waterhemp; type: in vivo, Amaranthus rudis; conditions: 125 g ai/ha, scale 0 to 100, 0 no effect, 100 complete control
[4] = tested on: wheat, spring (spring wheat, Triticum aestivum); assay: Test D pre-/postemergence: wheat, spring; type: in vivo
In short: as §1

[5] = tested on: chamomile (scentless chamomile, Matricaria inodora); assay: Test D pre-/postemergence: chamomile; type: in vivo
In short: as §1

[6] = tested on: dayflower, VA (Virginia (VA) dayflower, Commelina virginica); assay: Test F pre-/postemergence: dayflower, VA; type: in vivo; conditions: Preemergence, scale 0 to 100
In short: as §2

[7] = tested on: field bindweed (Convolvulus arvensis); assay: Test F pre-/postemergence: field bindweed; type: in vivo; conditions: Preemergence, scale 0 to 100
In short: as §2

[8] = tested on: lambsquarters (Chenopodium album); assay: Test F pre-/postemergence: lambsquarters; type: in vivo; conditions: Preemergence, scale 0 to 100
In short: as §2

[9] = tested on: canarygrass (Phalaris minor); assay: Test D pre-/postemergence: canarygrass; type: in vivo
In short: as §1

[10] = Postemergence, 31 g ai/ha, scale 0 to 100 (0 no effect, 100 complete control)
[11] = Postemergence, 62 g ai/ha, scale 0 to 100 (0 no effect, 100 complete control)
[12] = Postemergence, 125 g ai/ha, scale 0 to 100, 0 no effect, 100 complete control
[13] = Postemergence, 16 g ai/ha, scale 0 to 100
[14] = Preemergence, 16 g ai/ha, scale 0 to 100, 0 no effect, 100 complete control
[15] = Preemergence, 31 g ai/ha, scale 0 to 100, 0 no effect, 100 complete control
[16] = Preemergence, 62 g ai/ha, scale 0 to 100
[17] = Preemergence, 125 g ai/ha, scale 0 to 100

Compound: CCc1nn(-c2ccc(C(F)(F)F)cc2)nc1Cc1ccnc(C(F)(F)F)c1 [Compound 155]
- Plant response rating: Field Poppy [1, 10]: 95
- Plant response rating: Field Poppy [1, 11]: 100
- Plant response rating: Field Poppy [1, 12]: 100
- Plant response rating, Field Poppy [1, 13]: 80
- Plant response rating, Field Poppy [1, 14]: 80
- Plant response rating, Field Poppy [1, 15]: 95
- Plant response rating, Field Poppy [1, 16]: 95
- Plant response rating, Field Poppy [1, 17]: 100
- Plant response rating: Bromegrass, Downy [2, 10]: 15
- Plant response rating: Bromegrass, Downy [2, 11]: 35
- Plant response rating: Bromegrass, Downy [2, 12]: 55
- Plant response rating, Bromegrass, Downy [2, 13]: 5
- Plant response rating, Bromegrass, Downy [2, 14]: 0
- Plant response rating, Bromegrass, Downy [2, 15]: 5
- Plant response rating, Bromegrass, Downy [2, 16]: 10
- Plant response rating, Bromegrass, Downy [2, 17]: 35
- Plant response rating, Crabgrass, Large ([3]; 62 g ai/ha): 100
- Plant response rating, Crabgrass, Large ([3]; 125 g ai/ha): 100
- Plant response rating, Crabgrass, Large ([3]; 250 g ai/ha): 100
- Plant response rating, Waterhemp (Waterhemp): 100
- Plant response rating: Wheat, Spring [4, 10]: 20
- Plant response rating: Wheat, Spring [4, 11]: 25
- Plant response rating: Wheat, Spring [4, 12]: 50
- Plant response rating, Wheat, Spring [4, 13]: 15
- Plant response rating, Wheat, Spring [4, 14]: 0
- Plant response rating, Wheat, Spring [4, 15]: 0
- Plant response rating, Wheat, Spring [4, 16]: 0
- Plant response rating, Wheat, Spring [4, 17]: 5
- Plant response rating: Chamomile [5, 10]: 70
- Plant response rating: Chamomile [5, 11]: 80
- Plant response rating: Chamomile [5, 12]: 85
- Plant response rating, Chamomile [5, 13]: 60
- Plant response rating, Chamomile [5, 14]: 5
- Plant response rating, Chamomile [5, 15]: 80
- Plant response rating, Chamomile [5, 16]: 95
- Plant response rating, Chamomile [5, 17]: 100
- Plant response rating, Dayflower, VA ([6]; 62 g ai/ha): 20
- Plant response rating, Dayflower, VA ([6]; 125 g ai/ha): 35
- Plant response rating, Dayflower, VA ([6]; 250 g ai/ha): 60
- Plant response rating, Field Bindweed ([7]; 62 g ai/ha): 85
- Plant response rating, Field Bindweed ([7]; 125 g ai/ha): 95
- Plant response rating, Field Bindweed ([7]; 250 g ai/ha): 100
- Plant response rating, Lambsquarters ([8]; 62 g ai/ha): 98
- Plant response rating, Lambsquarters ([8]; 125 g ai/ha): 98
- Plant response rating, Lambsquarters ([8]; 250 g ai/ha): 98
- Plant response rating: Canarygrass [9, 10]: 70
- Plant response rating: Canarygrass [9, 11]: 70
- Plant response rating: Canarygrass [9, 12]: 85
- Plant response rating, Canarygrass [9, 13]: 20
- Plant response rating, Canarygrass [9, 14]: 10
- Plant response rating, Canarygrass [9, 15]: 70
- Plant response rating, Canarygrass [9, 16]: 100
- Plant response rating, Canarygrass [9, 17]: 100
